target: T1, AhR (Homo sapiens, UniProt P35869); experiment: In vitro assay 1: XRE-luciferase reporter assay, antagonism in human cell line (HepG2); format: cell-based; settings: HepG2 XRE-luciferase, cells treated with kynurenine 50 μM (*), 6 hours; read-out: Assay 1: AhR-Luc Human Antagonism (IC50)
T1 construct: host or cells: HepG2
T1 sequence (P35869 11-848): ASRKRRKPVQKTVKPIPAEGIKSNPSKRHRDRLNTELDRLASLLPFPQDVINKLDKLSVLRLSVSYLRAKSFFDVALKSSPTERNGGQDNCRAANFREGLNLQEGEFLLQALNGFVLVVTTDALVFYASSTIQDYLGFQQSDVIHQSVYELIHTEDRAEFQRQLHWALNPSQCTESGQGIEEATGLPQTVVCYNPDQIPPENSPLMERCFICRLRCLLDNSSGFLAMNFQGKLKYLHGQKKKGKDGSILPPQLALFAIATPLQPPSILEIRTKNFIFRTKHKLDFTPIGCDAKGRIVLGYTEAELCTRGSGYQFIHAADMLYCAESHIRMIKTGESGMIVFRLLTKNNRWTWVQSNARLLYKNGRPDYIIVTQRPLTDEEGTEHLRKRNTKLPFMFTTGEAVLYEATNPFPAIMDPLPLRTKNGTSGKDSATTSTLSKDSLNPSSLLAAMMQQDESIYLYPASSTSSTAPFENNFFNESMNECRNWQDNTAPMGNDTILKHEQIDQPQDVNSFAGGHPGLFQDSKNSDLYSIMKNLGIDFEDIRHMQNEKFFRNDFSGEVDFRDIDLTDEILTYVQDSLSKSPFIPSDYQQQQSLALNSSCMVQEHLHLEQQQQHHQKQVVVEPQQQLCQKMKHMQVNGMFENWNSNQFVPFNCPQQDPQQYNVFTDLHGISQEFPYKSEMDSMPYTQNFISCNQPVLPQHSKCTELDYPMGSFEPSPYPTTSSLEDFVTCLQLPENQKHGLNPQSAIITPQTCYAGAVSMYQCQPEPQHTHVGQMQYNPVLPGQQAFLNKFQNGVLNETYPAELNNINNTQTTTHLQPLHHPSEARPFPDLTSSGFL
Excerpt: In Vitro XRE-Luciferase Reporter Assay (In Vitro Assay 1, 2, 3)
AhR activation leads the induction of target gene expression such as CYP1A1 and CYP1B1 by AhR binding to AhR-responsive DNA elements also known as xenobiotics responsive elements (XRE). The assay for measuring AhR activity herein is the luciferase assay using cell lines transfected with luciferase reporter plasmid containing XREs at the upstream of the reporter gene. Cells transfected with XRE-luciferase reporter (XRE-Luc) plasmid drive luciferase activity reflecting activation and inhibition of AhR in the cells. In addition to transfection with XRE-reporter vector, cells were co-transfected with Nano-luciferase reporter gene construct (Nano-Luc) containing constitutively active promoter as internal control. Kynurenine (an endogenous AhR agonist) was used to stimulate cells to test antagonistic properties of the compounds. The half-maximal inhibitory concentration (IC50) or half-maximal effective concentration (EC50) value was calculated using nonlinear regression (four parameters) with Prism8.0 software (GraphPad).
In Vitro Assay 1: Antagonism in Human Cell Line
HepG2 (human hepatoma cell line) cell line with a XRE-luciferase reporter either transiently or stably (Invivogen) were plated in complete medium and incubated at 37° C. in a CO2 incubator. After 24 hours, cells were treated with kynurenine (50* or 200 μM) alone (negative control) or with test compounds for 6 hours. Luciferase activity was measured with a commercial kit such as the Promega Luciferase kit or other reagents for measuring luciferase activity. Relative luciferase activity (Firefly/Nano-Luc) was used to calculate IC50 values. The relative luciferase activity was further normalized with kynurenine alone group as the maximum control and the vehicle group as the minimum control. (IC50 values are grouped as A, B, C and D, whereby A: IC50<0.01 μM; B: 0.01<IC50<0.1 μM; C: 0.1<IC50<1.0 μM; D: IC50>1.0 μM)

| IC50 [nM] | SMILES |
| --- | --- |
| > 1000 | CC(CO)n1cnc2c(-c3ccc(C(F)(F)F)cc3)nc(-c3cnn(C)c3)cc2c1=O (centres unmarked) [Example 4, 3-(1-hydroxypropan-2-yl)-6-(1-methyl-1H-pyrazol-4-yl)-8-(4-(trifluoromethyl)phenyl)pyrido[3,4-d]pyrimidin-4(3H)-one] |
| > 1000 | CC(CO)n1cnc2c(-c3ccc(Cl)cc3)nc(-c3cccnc3)cc2c1=O (centres unmarked) [Example 5, 8-(4-chlorophenyl)-3-(1-hydroxypropan-2-yl)-6-(pyridin-3-yl)pyrido[3,4-d]pyrimidin-4(3H)-one] |
| > 1000 | CC(=O)OCC(C)n1cnc2c(-c3ccc(Cl)cc3)nc(Cl)cc2c1=O (centres unmarked) [Example 7, 2-(6-chloro-8-(4-chlorophenyl)-4-oxopyrido[3,4-d]pyrimidin-3(4H)-yl)propyl acetate] |
| 100 to 1000 | Cn1cc(-c2cc3c(=O)n([C@H]4CC[C@H](O)CC4)cnc3c(-c3cnn(C)c3)n2)cn1 [Example 9, 3-((1r,4r)-4-hydroxycyclohexyl)-6,8-bis(1-methyl-1H-pyrazol-4-yl)pyrido[3,4-d]pyrimidin-4(3H)-one] |
| 100 to 1000 | CC(O)Cn1cnc2c(-c3cnn(C)c3)nc(-c3cnn(C)c3)cc2c1=O (centres unmarked) [Example 11, 3-(2-hydroxypropyl)-6,8-bis(1-methyl-1H-pyrazol-4-yl)pyrido[3,4-d]pyrimidin-4(3H)-one] |
| < 10 | CC(O)Cn1cnc2c(-c3cnn(C)c3)nc(-c3ccc(C(F)(F)F)cc3)cc2c1=O (centres unmarked) [Example 12, 3-(2-hydroxypropyl)-8-(1-methyl-1H-pyrazol-4-yl)-6-(4-(trifluoromethyl)phenyl)pyrido[3,4-d]pyrimidin-4(3H)-one] |

Second part, the compound before the results:

| SMILES | IC50 [nM] |
| --- | --- |
| Cn1cc(-c2cc3c(=O)n(C4CCCC(O)C4)cnc3c(-c3cnn(C)c3)n2)cn1 (centres unmarked) [Example 2, 3-(3-hydroxycyclohexyl)-6,8-bis(1-methyl-1H-pyrazol-4-yl)pyrido[3,4-d]pyrimidin-4(3H)-one] | 100 to 1000 |
| CC(CO)n1cnc2c(-c3ccc(C(F)(F)F)cc3)nc(-c3ccc(C(F)(F)F)cc3)cc2c1=O (centres unmarked) [Example 6, 3-(1-hydroxypropan-2-yl)-6,8-bis(4-(trifluoromethyl)phenyl)pyrido[3,4-d]pyrimidin-4(3H)-one] | 100 to 1000 |
| CC(O)Cn1cnc2c(-c3cnn(C)c3)nc(-c3ccc(Cl)cc3)cc2c1=O (centres unmarked) [Example 13, 6-(4-chlorophenyl)-3-(2-hydroxypropyl)-8-(1-methyl-1H-pyrazol-4-yl)pyrido[3,4-d]pyrimidin-4(3H)-one] | < 10 |

same assay, conditions: HepG2 XRE-luciferase, cells treated with kynurenine 200 μM (no *), 6 hours; read-out: Assay 1: AhR-Luc Human Antagonism (IC50)

| IC50 [nM] | SMILES |
| --- | --- |
| > 1000 | O=c1c2cc(-c3ccc(C(F)(F)F)cc3)nc(-c3cccnc3)c2ncn1[C@H]1CCCC[C@H]1O [Example 15, 3-((1S,2R)-2-hydroxycyclohexyl)-8-(pyridin-3-yl)-6-(4-(trifluoromethyl)phenyl)pyrido[3,4-d]pyrimidin-4(3H)-one] |
| < 10 | Cn1cc(-c2nc(-c3ccc(C(F)(F)F)cc3)cc3c(=O)n([C@@H]4CCCC[C@@H]4O)cnc23)cn1 [Example 18, 3-((1R,2S)-2-hydroxycyclohexyl)-8-(1-methyl-1H-pyrazol-4-yl)-6-(4-(trifluoromethyl)phenyl)pyrido[3,4-d]pyrimidin-4(3H)-one] |
| > 1000 | O=c1c2cc(-c3ccc(Cl)cc3)nc(-c3cccnc3)c2ncn1[C@H]1CCCC[C@H]1O [Example 21] |
| < 10 | Cn1cc(-c2nc(-c3ccc(Cl)cc3)cc3c(=O)n(CC(O)C(F)(F)F)cnc23)cn1 (centres unmarked) [Example 23, 6-(4-chlorophenyl)-8-(1-methyl-1H-pyrazol-4-yl)-3-(3,3,3-trifluoro-2-hydroxypropyl)pyrido[3,4-d]pyrimidin-4(3H)-one] |
| < 10 | O=c1c2cc(-c3ccc(Cl)cc3)nc(-c3cccnc3)c2ncn1CC(O)C(F)(F)F (centres unmarked) [Example 24, 6-(4-chlorophenyl)-8-(pyridin-3-yl)-3-(3,3,3-trifluoro-2-hydroxypropyl)pyrido[3,4-d]pyrimidin-4(3H)-one] |
| > 1000 | O=c1c2cc(-c3ccc(C(F)(F)F)cc3)nc(-c3cccnc3)c2ncn1CC(O)C(F)(F)F (centres unmarked) [Example 25, 8-(pyridin-3-yl)-3-(3,3,3-trifluoro-2-hydroxypropyl)-6-(4-(trifluoromethyl)phenyl)pyrido[3,4-d]pyrimidin-4(3H)-one] |
| < 10 | Cn1cc(-c2nc(-c3ccc(C(F)(F)F)cc3)cc3c(=O)n(-c4cccc(O)c4)cnc23)cn1 [Example 27, 3-(3-hydroxyphenyl)-8-(1-methyl-1H-pyrazol-4-yl)-6-(4-(trifluoromethyl)phenyl)pyrido[3,4-d]pyrimidin-4(3H)-one] |
| < 10 | O=c1c2cc(-c3ccc(C(F)(F)F)cc3)nc(-c3cccnc3)c2ncn1[C@@H]1CC[C@H](O)C1 [Example 29, 3-((1R,3S)-3-hydroxycyclopentyl)-8-(pyridin-3-yl)-6-(4-(trifluoromethyl)phenyl)pyrido[3,4-d]pyrimidin-4(3H)-one] |
| < 10 | O=c1c2cc(-c3ccc(Cl)cc3)nc(-c3cccnc3)c2ncn1[C@H]1CC[C@@H](O)C1 [Example 32, 6-(4-chlorophenyl)-3-((1S,3R)-3-hydroxycyclopentyl)-8-(pyridin-3-yl)pyrido[3,4-d]pyrimidin-4(3H)-one] |

Further lines, the compound ahead of its results:

| SMILES | IC50 [nM] |
| --- | --- |
| O=c1c2cc(-c3ccc(Cl)cc3)nc(-c3cccnc3)c2ncn1[C@@H]1CCCC[C@@H]1O [Example 19] | < 10 |
| Cn1cc(-c2nc(-c3ccc(Cl)cc3)cc3c(=O)n([C@H]4CCCC[C@H]4O)cnc23)cn1 [Example 20, 6-(4-chlorophenyl)-3-((1S,2R)-2-hydroxycyclohexyl)-8-(1-methyl-1H-pyrazol-4-yl)pyrido[3,4-d]pyrimidin-4(3H)-one] | > 1000 |
| Cn1cc(-c2nc(-c3ccc(C(F)(F)F)cc3)cc3c(=O)n(CC(O)C(F)(F)F)cnc23)cn1 (centres unmarked) [Example 22, 8-(1-methyl-1H-pyrazol-4-yl)-3-(3,3,3-trifluoro-2-hydroxypropyl)-6-(4-(trifluoromethyl)phenyl)pyrido[3,4-d]pyrimidin-4(3H)-one] | < 10 |
| Cn1cc(-c2nc(-c3ccc(Cl)cc3)cc3c(=O)n(-c4cccc(O)c4)cnc23)cn1 [Example 26, 6-(4-chlorophenyl)-3-(3-hydroxyphenyl)-8-(1-methyl-1H-pyrazol-4-yl)pyrido[3,4-d]pyrimidin-4(3H)-one] | 10 to 100 |
| O=c1c2cc(-c3ccc(Cl)cc3)nc(-c3cccnc3)c2ncn1[C@@H]1CC[C@H](O)C1 [Example 28, 6-(4-chlorophenyl)-3-((1R,3S)-3-hydroxycyclopentyl)-8-(pyridin-3-yl)pyrido[3,4-d]pyrimidin-4(3H)-one] | < 10 |
| Cn1cc(-c2nc(-c3ccc(Cl)cc3)cc3c(=O)n([C@@H]4CC[C@H](O)C4)cnc23)cn1 [Example 30, 6-(4-chlorophenyl)-3-((1R,3S)-3-hydroxycyclopentyl)-8-(1-methyl-1H-pyrazol-4-yl)pyrido[3,4-d]pyrimidin-4(3H)-one] | 10 to 100 |
| Cn1cc(-c2nc(-c3ccc(C(F)(F)F)cc3)cc3c(=O)n([C@@H]4CC[C@H](O)C4)cnc23)cn1 [Example 31, 3-((1R,3S)-3-hydroxycyclopentyl)-8-(1-methyl-1H-pyrazol-4-yl)-6-(4-(trifluoromethyl)phenyl)pyrido[3,4-d]pyrimidin-4(3H)-one] | < 10 |
| O=c1c2cc(-c3ccc(C(F)(F)F)cc3)nc(-c3cccnc3)c2ncn1[C@H]1CC[C@@H](O)C1 [Example 33, 3-((1S,3R)-3-hydroxycyclopentyl)-8-(pyridin-3-yl)-6-(4-(trifluoromethyl)phenyl)pyrido[3,4-d]pyrimidin-4(3H)-one] | < 10 |
